Results published in patent US20230416262A1, “TRPML MODULATORS” (Casma Therapeutics, Inc., priority 2020, published 2023).
pEC50: −log10 of the molar value.

Test system: THP-1 cells
Test: Lamp1 lysosomal exocytosis assay
Assay type: cell-based
Settings: Homo sapiens, 55 min, 55 min incubation, top dose 20 μM
Method: For the Lamp1 lysosomal exocytosis assay, a human monocytic suspension cell line (THP-1) was used. Cells in culture should be used between a density of […] and 1.2e6/mL on the day of the assay. For each 96-well assay plate to be used, pellet 11e6 THP-1 cells at 330×g for 5 min in a 50 mL conical tube, aspirate media and resuspend in 22 mLs of RPMI 1640/10% FBS media for a final cell concentration of 5e5/mL. Prior to addition of cells to the assay plate, perform a 7 pt dilution curve using a top dose of compound at 2 mM and use a 3-fold serial dilution, the 8th point is DMSO only. Final top dose of compound in the assay was 20 μM. 2 μL of each serial dilution was transferred to a new 96-well v-bottom assay plate. 198 μL of cells (1e5 total cells/well) was prepared as above in each well of the assay plate and incubated at 37° C./5% CO2/95% RH for 55 min. After the 55 min incubation, cells were pelleted for 5 min at 4 C at 400×g in a tabletop centrifuge. The media was separated from the cell pellets in the plate. The pellets were washed using 200 μL ice cold buffer (PBS Ca^++/Mg^++ containing 2% final BSA and 80 μM final Dynasore). Cells were pelleted again at 400×g-5 min in a 4° C. tabletop centrifuge. Buffer was separated from cells. Each well was suspended in 75 uL Lamp1-PE antibody buffer (PBS Ca^++/Mg^++ containing 2% final BSA with 80 uM final Dynasore and 1:800 final dilution of Lamp 1-PE labeled antibody). After a 45 min antibody incubation on ice, 25 μL of sytox green was added (I drop/mL buffer), and each well was mixed and incubated for an additional 15 min on ice. After the 15 min sytox green incubation, 100 μL of ice-cold buffer (PBS Ca^++/Mg^++ containing 2% final BSA and 80 uM final Dynasore) was added and cells were pelleted for 5 min at 400×g. The buffer was removed and each sample was resuspended in 100 uL of ice-cold buffer (PBS Ca^++/Mg^++ containing 2% final BSA and 80 μM final Dynasore). FACs gating strategy: FACS analyze for sytox green (A488) and Lamp1-PE (DsRed). First gate against FSC-A/SSC-A to find non-fragmented or ‘live’ THP-1 cells. Next gate against FITC-A/FSC-A to omit sytox green positive cells. Then gate for FSC-A/FSC-H to remove any doublet cells. The last gate was a histogram for PE. The statistics for ‘count’ and ‘geometric mean fluorescence intensity’ (gWFI) for PE were repoted on the last gate.
Compounds having an activity designated as “++++” provided an exocytosis readout of ≤0.50 μM; compounds having an activity designated as “+++” provided an exocytosis readout of 0.51-1.00 μM; compounds having an activity designated as “++” provided an exocytosis readout of 1.01-5.00 μM; and compounds having an activity designated as “+” provided an exocytosis readout of ≥5.01 μM

SMILES	pEC50
O=C(Nc1cnsc1)N1CCC2(CC1)CN(S(=O)(=O)c1ccc(C(F)F)cc1)c1ccccc12 [Compound I-202, 1-((4-(difluoromethyl)phenyl)sulfonyl)-N-(isothiazol-4-yl)spiro[indoline-3,4′-piperidine]-1′-carboxamide]	≤ 5.30
O=C(NCC1CCCO1)N1CCC2(CC1)CN(S(=O)(=O)c1ccc(C(F)F)cc1)c1ccccc12 (centres unmarked) [Compound I-203, 1-((4-(difluoromethyl)phenyl)sulfonyl)-N-((tetrahydrofuran-2-yl)methyl)spiro[indoline-3,4′-piperidine]-1′-carboxamide]	≤ 5.30
O=C(NCC1CCOC1)N1CCC2(CC1)CN(S(=O)(=O)c1ccc(C(F)F)cc1)c1ccccc12 (centres unmarked) [Compound I-204]	≤ 5.30
O=C(NC1CCOCC1)N1CCC2(CC1)CN(S(=O)(=O)c1ccc(C(F)F)cc1)c1ccccc12 [Compound I-205, 1-((4-(difluoromethyl)phenyl)sulfonyl)-N-(tetrahydro-2H-pyran-4-yl)spiro[indoline-3,4′-piperidine]-1′-carboxamide]	≤ 5.30
O=C(NC1CC(F)(F)C1)N1CCC2(CC1)CN(S(=O)(=O)c1ccc(C(F)F)cc1)c1ccccc12 [Compound I-206, N-(3,3-difluorocyclobutyl)-1-((4-(difluoromethyl)phenyl)sulfonyl)spiro[indoline-3,4′-piperidine]-1′-carboxamide]	≤ 5.30
CCn1cc(NC(=O)N2CCC3(CC2)CN(S(=O)(=O)c2ccc(C(F)F)cc2)c2ccccc23)cn1 [Compound I-207, 1-((4-(difluoromethyl)phenyl)sulfonyl)-N-(1-ethyl-1H-pyrazol-4-yl)spiro[indoline-3,4′-piperidine]-1′-carboxamide]	≤ 5.30
O=C(NCCn1cccn1)N1CCC2(CC1)CN(S(=O)(=O)c1ccc(C(F)F)cc1)c1ccccc12 [Compound I-208, N-(2-(1H-pyrazol-1-yl)ethyl)-1-((4-(difluoromethyl)phenyl)sulfonyl)spiro[indoline-3,4′-piperidine]-1′-carboxamide]	≤ 5.30
Cn1cc(CNC(=O)N2CCC3(CC2)CN(S(=O)(=O)c2ccc(C(F)F)cc2)c2ccccc23)cn1 [Compound I-209, 1-((4-(difluoromethyl)phenyl)sulfonyl)-N-((1-methyl-1H-pyrazol-4-yl)methyl)spiro[indoline-3,4′-piperidine]-1′-carboxamide]	≤ 5.30
O=C(Nc1cncc(F)c1)N1CCC2(CC1)CN(S(=O)(=O)c1ccc(C(F)F)cc1)c1ccccc12 [Compound I-210, 1-((4-(difluoromethyl)phenyl)sulfonyl)-N-(5-fluoropyridin-3-yl)spiro[indoline-3,4′-piperidine]-1′-carboxamide]	≤ 5.30
Cc1cc(CNC(=O)N2CCC3(CC2)CN(S(=O)(=O)c2ccc(C(F)F)cc2)c2ccccc23)no1 [Compound I-211, 1-((4-(difluoromethyl)phenyl)sulfonyl)-N-((5-methylisoxazol-3-yl)methyl)spiro[indoline-3,4′-piperidine]-1′-carboxamide]	≤ 5.30
Cc1cc(CNC(=O)N2CCC3(CC2)CN(S(=O)(=O)c2ccc(C(F)F)cc2)c2ccccc23)on1 [Compound I-212]	≤ 5.30
Cc1noc(C)c1NC(=O)N1CCC2(CC1)CN(S(=O)(=O)c1ccc(C(F)F)cc1)c1ccccc12 [Compound I-213, 1-((4-(difluoromethyl)phenyl)sulfonyl)-N-(3,5-dimethylisoxazol-4-yl)spiro[indoline-3,4′-piperidine]-1′-carboxamide]	≤ 5.30
O=C(NCCC(F)(F)F)N1CCC2(CC1)CN(S(=O)(=O)c1ccc(C(F)F)cc1)c1ccccc12 [Compound I-214, 1-((4-(difluoromethyl)phenyl)sulfonyl)-N-(3,3,3-trifluoropropyl)spiro[indoline-3,4′-piperidine]-1′-carboxamide]	≤ 5.30
O=C(NCC1CCOCC1)N1CCC2(CC1)CN(S(=O)(=O)c1ccc(C(F)F)cc1)c1ccccc12 [Compound I-215, 1-((4-(difluoromethyl)phenyl)sulfonyl)-N-((tetrahydro-2H-pyran-4-yl)methyl)spiro[indoline-3,4′-piperidine]-1′-carboxamide]	≤ 5.30
COc1ccc(NC(=O)N2CCC3(CC2)CN(S(=O)(=O)c2ccc(C(F)F)cc2)c2ccccc23)cn1 [Compound I-216, 1-((4-(difluoromethyl)phenyl)sulfonyl)-N-(6-methoxypyridin-3-yl)spiro[indoline-3,4′-piperidine]-1′-carboxamide]	≤ 5.30
Cc1nn(C)c(C)c1NC(=O)N1CCC2(CC1)CN(S(=O)(=O)c1ccc(C(F)F)cc1)c1ccccc12 [Compound I-217, 1-((4-(difluoromethyl)phenyl)sulfonyl)-N-(1,3,5-trimethyl-1H-pyrazol-4-yl)spiro[indoline-3,4′-piperidine]-1′-carboxamide]	≤ 5.30
O=C(NC1CCC(F)(F)CC1)N1CCC2(CC1)CN(S(=O)(=O)c1ccc(C(F)F)cc1)c1ccccc12 [Compound I-218, N-(4,4-difluorocyclohexyl)-1-((4-(difluoromethyl)phenyl)sulfonyl)spiro[indoline-3,4′-piperidine]-1′-carboxamide]	≤ 5.30
O=C(NC1CCS(=O)(=O)CC1)N1CCC2(CC1)CN(S(=O)(=O)c1ccc(C(F)F)cc1)c1ccccc12 [Compound I-224, 1-((4-(difluoromethyl)phenyl)sulfonyl)-N-(1,1-dioxidotetrahydro-2H-thiopyran-4-yl)spiro[indoline-3,4′-piperidine]-1′-carboxamide]	≤ 5.30
Cn1cc(NC(=O)N2CCC3(CC2)CN(S(=O)(=O)c2ccc(C(F)F)cc2)c2ccccc23)c(=O)n(C)c1=O [Compound I-229, 1-((4-(difluoromethyl)phenyl)sulfonyl)-N-(1,3-dimethyl-2,4-dioxo-1,2,3,4-tetrahydropyrimidin-5-yl)spiro[indoline-3,4′-piperidine]-1′-carboxamide]	≤ 5.30
O=C(NCc1ccccn1)C1CCC2(CC1)CN(S(=O)(=O)c1ccc(C(F)F)cc1)c1ccccc12 (centres unmarked) [Compound I-231, 1′-((4-(difluoromethyl)phenyl)sulfonyl)-N-(pyridin-2-ylmethyl)spiro[cyclohexane-1,3′-indoline]-4-carboxamide]	≤ 5.30
O=C(NCc1cccnc1)C1CCC2(CC1)CN(S(=O)(=O)c1ccc(C(F)F)cc1)c1ccccc12 (centres unmarked) [Compound I-232, 1′-((4-(difluoromethyl)phenyl)sulfonyl)-N-(pyridin-3-ylmethyl)spiro[cyclohexane-1,3′-indoline]-4-carboxamide]	≤ 5.30
O=C(NCc1ccncc1)C1CCC2(CC1)CN(S(=O)(=O)c1ccc(C(F)F)cc1)c1ccccc12 (centres unmarked) [Compound I-233, 1′-((4-(difluoromethyl)phenyl)sulfonyl)-N-(pyridin-4-ylmethyl)spiro[cyclohexane-1,3′-indoline]-4-carboxamide]	≤ 5.30
O=C(NCC1CC1)C1CCC2(CC1)CN(S(=O)(=O)c1ccc(C(F)F)cc1)c1ccccc12 (centres unmarked) [Compound I-236, N-(cyclopropylmethyl)-1′-((4-(difluoromethyl)phenyl)sulfonyl)spiro[cyclohexane-1,3′-indoline]-4-carboxamide]	≤ 5.30
O=C(C1CCC2(CC1)CN(S(=O)(=O)c1ccc(C(F)F)cc1)c1ccccc12)N1CCCC1 (centres unmarked) [Compound I-237, (1′-((4-(difluoromethyl)phenyl)sulfonyl)spiro[cyclohexane-1,3′-indolin]-4-yl)(pyrrolidin-1-yl)methanone]	≤ 5.30
O=C(C1CCC2(CC1)CN(S(=O)(=O)c1ccc(C(F)F)cc1)c1ccccc12)N1CCOCC1 (centres unmarked) [Compound I-238, (1′-((4-(difluoromethyl)phenyl)sulfonyl)spiro[cyclohexane-1,3′-indolin]-4-yl)(morpholino)methanone]	≤ 5.30
O=C(C1CCC2(CC1)CN(S(=O)(=O)c1ccc(C(F)F)cc1)c1ccccc12)N1CCC(F)(F)CC1 (centres unmarked) [Compound I-239, (1′-((4-(difluoromethyl)phenyl)sulfonyl)spiro[cyclohexane-1,3′-indolin]-4-yl)(4,4-difluoropiperidin-1-yl)methanone]	≤ 5.30
